Numbers after ± are expanded uncertainties.
Columns and labels:
[1] = Molar enthalpy of transition or fusion; conditions: Crystal; DSC
[2] = Crystal; DTA

## CCOc1cc(C=O)ccc1O [3-ethoxy-4-hydroxybenzaldehyde]
[1]
  Molar enthalpy of transition or fusion: 5.64 ± 1.24 kcal/mol
[2]
  Normal melting temperature: 78 ± 1.1 °C

Reference: the NIST ThermoML archive (doi:10.1021/acs.jced.6b00972)
